Drawing on ChEMBL document CHEMBL2074566, “Azithromycin reverses anticancer drug resistance and modifies hepatobiliary excretion of doxorubicin in rats” (Eur J Pharmacol, 2004), this text covers Activity for one molecule.

The series has as its target ATP-dependent translocase ABCB1 (Homo sapiens, UniProt P08183). The series can be described thus: TP_TRANSPORTER: cell accumulation of doxorubicin in the presence of Azithromycin at a concentration of 0.3uM and 1mM in K562/ADR cells. In kind it is functional, cell-based.

Chain of ATP-dependent translocase ABCB1 (P08183 whole entry): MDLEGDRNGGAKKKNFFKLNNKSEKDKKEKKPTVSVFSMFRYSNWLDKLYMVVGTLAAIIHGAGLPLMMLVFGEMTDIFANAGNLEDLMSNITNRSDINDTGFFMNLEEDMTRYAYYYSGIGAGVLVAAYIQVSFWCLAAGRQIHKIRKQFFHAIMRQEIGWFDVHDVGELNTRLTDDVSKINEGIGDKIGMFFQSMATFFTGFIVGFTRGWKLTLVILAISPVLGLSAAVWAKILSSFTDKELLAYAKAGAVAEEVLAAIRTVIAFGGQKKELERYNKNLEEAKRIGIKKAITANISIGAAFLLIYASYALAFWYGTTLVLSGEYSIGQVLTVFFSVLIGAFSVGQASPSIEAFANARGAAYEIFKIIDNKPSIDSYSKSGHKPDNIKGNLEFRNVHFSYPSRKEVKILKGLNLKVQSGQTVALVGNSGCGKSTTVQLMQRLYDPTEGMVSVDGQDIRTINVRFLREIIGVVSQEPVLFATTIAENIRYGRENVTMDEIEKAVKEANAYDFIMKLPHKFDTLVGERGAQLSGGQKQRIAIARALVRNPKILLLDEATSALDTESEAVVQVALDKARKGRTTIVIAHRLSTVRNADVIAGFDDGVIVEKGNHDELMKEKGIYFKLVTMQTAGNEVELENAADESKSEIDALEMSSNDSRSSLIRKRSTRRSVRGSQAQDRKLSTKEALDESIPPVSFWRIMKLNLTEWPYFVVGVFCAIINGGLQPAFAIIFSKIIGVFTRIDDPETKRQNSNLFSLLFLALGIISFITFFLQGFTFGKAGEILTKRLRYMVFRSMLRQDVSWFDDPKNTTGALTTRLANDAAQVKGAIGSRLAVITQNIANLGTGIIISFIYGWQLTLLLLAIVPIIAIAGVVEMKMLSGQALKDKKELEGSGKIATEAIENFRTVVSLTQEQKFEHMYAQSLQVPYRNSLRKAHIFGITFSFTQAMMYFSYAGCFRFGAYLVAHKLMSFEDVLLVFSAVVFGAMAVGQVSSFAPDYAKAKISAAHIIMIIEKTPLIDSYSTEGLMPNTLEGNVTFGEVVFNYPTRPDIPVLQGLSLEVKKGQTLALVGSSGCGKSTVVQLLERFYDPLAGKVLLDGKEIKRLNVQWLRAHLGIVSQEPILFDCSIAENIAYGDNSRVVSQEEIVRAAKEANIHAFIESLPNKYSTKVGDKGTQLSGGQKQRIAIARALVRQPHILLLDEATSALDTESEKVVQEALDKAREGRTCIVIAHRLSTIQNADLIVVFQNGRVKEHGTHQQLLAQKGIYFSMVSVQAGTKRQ

Take `CC[C@H]1OC(=O)[C@H](C)[C@@H](O[C@H]2C[C@@](C)(OC)[C@@H](O)[C@H](C)O2)[C@H](C)[C@@H](O[C@@H]2O[C@H](C)C[C@H](N(C)C)[C@H]2O)[C@](C)(O)C[C@@H](C)CN(C)[C@H](C)[C@@H](O)[C@]1(C)O` [AZITHROMYCIN]: the Activity entry is “inhibitor [+]”.
